Laboratory results: patent US7013836B1, “Enhancing maturation of oocytes in bivalves” (Board of Supervisors of Louisiana State University and …, priority 2002, dated 2006)
Where two headings read alike, the source gives them in different places. *1 amine or outer side, *2 acyl side, *3 side chain or, on linkers, in order; H or OH if unused. Where a SMILES comes first, the peptide text is derived from it. Bridges are numbered along the chain shown (N, C = ends). Roman numbers before positions name the chains, in order. [ ]: non-standard residue; d: D form. Actinocin(9to1) = Cc1c2oc3c(C)ccc(C(=O)[*:1])c3nc-2c(C(=O)[*:2])c(N)c1=O; NMeV = CN[C@H](C(=O)O)C(C)C; Sar = CNCC(=O)O

Legend:
[1] = test system: pieces of ovary from the scallop; conditions: cited from earlier work
[2] = test system: ovarian pieces of the scallop; conditions: isolated ovarian pieces in vitro; cited from earlier work
[3] = test system: Japanese scallop; conditions: in vivo; cited from earlier work
[4] = test system: C. gigas; conditions: cited from earlier work
[5] = test system: triploid C. virginica oysters; assay: Triploid oysters: sex, gonadal condition and oocyte yield by stripping after estradiol injection; assay type: in vivo, Crassostrea virginica; conditions: 150 ng/gm wet weight
Procedure: In trials with 261 triploid C. virginica oysters that began on May 31 in Grand Isle, La., the oysters were notched and were then injected with 150 ng/gm wet weight estradiol 17β. Ten days later, the animals were sacrificed, and their sex and gonadal condition were determined. Of the 261 animals tested, 13 were confirmed female triploids. These 13 triploid females yielded a total of 6 million oocytes by traditional stripping techniques, which is not a high yield in comparison to diploid animals, but was high compared to untreated triploids.
For comparison, on May 6 of the following year, 165 animals selected from the same original cohort of triploid oysters were sacrificed without the estradiol treatment. […] While these observations were made one year apart, both sets of observations involved triploid animals sharing the same diploid parents. The estradiol-treated group was 2 years old at the time of observation, while the untreated group one year later was 3 years old. […] However, in support of the effectiveness of the treatment, it may be noted that the three-year-old, untreated animals were sacrificed at a time when the population of mature and spawning diploid animals in the same location was at its peak, whereas the two-year-old, estradiol-treated animals were examined when the number of mature and spawning diploids was in decline.

[6] = test system: C. virginica; assay: Spawning response of estradiol-17β-injected oysters to serotonin stimulus after normal spawning season; assay type: in vivo, Crassostrea virginica
Procedure: A series of initial experiments assayed the response of C. virginica to low doses of estradiol-17β. These trials were undertaken in August and September, at the end of the normal maturation and spawning season of this species on the Gulf coast. Experiments typically ran for two weeks following the injection of a single dose of estradiol-17β into the […] muscle. (Injections were made through a small hole drilled in the shell.) The estradiol dosage for each animal was calculated based on wet body tissue mass of the whole animal, as estimated from its shell length. (These estimates were based on linear regression from measurements of shell lengths and wet body mass from 62 mixed-sex oysters that had been harvested in July). […] (The normal physiological level is 1.5 ng per gram wet weight. So a 5× dosage is 7.5 ng per gram wet weight, […]) Responses to the estradiol treatment were based on visual assessment of gonadal condition, on the response of the excised whole animal to a solution of 0.01 mM 5-hydroxytryptamine during a 45 min treatment period, and on histological examination of samples of the oyster taken through the body mass containing the gonadal region.
The three trials summarized in Table 1 were analyzed using a yes/no non-parametric chi-squared analysis.

[7] = test system: oysters; assay: Presence of prominent genital canals 14 days after estradiol-17β injection; assay type: in vivo, Crassostrea virginica; conditions: after 14 days, May
Procedure: In another experiment, conducted in May in Grand Isle, La., animals were injected either with 0 (control), 37.5 ng/g, or 74 ng/g of estradiol-17β. After 14 days, animals were evaluated using the traditional methodology of assaying the presence of prominent genital canals, indicative of mature animals that are ready to spawn. These animals were not subjected to serotonin treatment, but rather were sacrificed for histological examination to establish a somatic-gonadal ratio index. […] Data analysis was performed using GraphPad InStat software. The data reported in Table 2 are conservative, in the following sense: During the trial period, the water temperature decreased from 23° C. to 18° C., and then increased to 22° C., all within a thirty-six hour period. Such a temperature change is alone often sufficient to trigger spawning in the wild.

[8] = test system: zebra mussels (Dreissena polymorpha); conditions: cited from earlier work
[9] = test system: scallop Patinopecten yessoensis; conditions: intragonadal injection; cited from earlier work
[10] = Aug. 18, injection 75 ng per gram wet weight
[11] = Sep. 15, injection 7.5 ng per gram wet weight
[12] = Sep. 22, injection 15 ng per gram wet weight

Compound: CC[C@@H](CO)NC(=O)[C@@H]1C=C2c3cccc4c3c(cn4C)C[C@H]2N(C)C1 [Methysergide]
- release of eggs ([1]; pieces of ovary in vitro): inhibited the release of eggs

Compound: CCCCC[C@H](O)/C=C/[C@H]1[C@H](O)CC(=O)[C@@H]1C/C=C\CCCC(=O)O [PGE2, prostaglandin E2]
- effect on serotonin-induced egg release ([1]; pieces of ovary in vitro): enhanced the effect of serotonin
- release of eggs ([1]; pieces of ovary in vitro): did not induce egg release

Compound: Cc1c2oc3c(C)ccc(C(=O)N[C@@H]4C(=O)N[C@H](C(C)C)C(=O)N5CCC[C@H]5C(=O)N(C)CC(=O)N(C)[C@@H](C(C)C)C(=O)O[C@@H]4C)c3nc-2c(C(=O)N[C@@H]2C(=O)N[C@H](C(C)C)C(=O)N3CCC[C@H]3C(=O)N(C)CC(=O)N(C)[C@@H](C(C)C)C(=O)O[C@@H]2C)c(N)c1=O [actinomycin D] (I: T[dV]P[Sar][NMeV] / II: T[dV]P[Sar][NMeV]; ester I:1-I:C, II:1-II:C; linker I:N-II:N via Actinocin(9to1))
- effect on the accelerating effect of estradiol-17β pre-incubation [2]: inhibited

Compound: CC(=O)Oc1ccccc1C(=O)O [aspirin]
- effect on the accelerating effect of estradiol-17β pre-incubation [2]: inhibited
- effect on serotonin-induced egg release ([1]; PGE2 also present): did not inhibit serotonin-induced egg release

Compound: C[C@]12C[C@H]3S[C@H]3C[C@@H]1CC[C@@H]1[C@@H]2CC[C@]2(C)[C@@H](O)CC[C@@H]12 [epitostanol]
- increase of PGE2 and PGF2α in the ovary [3]: inhibit the increase of PGE2 and PGF2α

Compound: C[C@]12CC[C@@H]3c4ccc(OC(=O)c5ccccc5)cc4CC[C@H]3[C@@H]1CC[C@@H]2O [estradiol-3-benzoate]
- response time following injection [4]: about 50 days
- gonadal-somatic index ratio ([4]; high dose injected into the gonad): promoted an increase in the gonadal-somatic index ratio

Compound: C[C@]12CC[C@@H]3c4ccc(O)cc4CC[C@H]3[C@@H]1CC[C@@H]2O [estradiol-17β]
- total oocytes yielded by traditional stripping ([5]; 13 triploid females, ten days after injection): 6 million oocytes
- confirmed female triploids among animals tested ([5]; of 261 triploid oysters, untreated cohort of 165 had none): 13
- Animals not responding to 5-hydroxytryptophan stimulus - % [6, 10]: 42%
- Animals not responding to 5-hydroxytryptophan stimulus - no. [6, 10]: 6
- Animals responding to 5-hydroxytryptophan stimulus - % [6, 10]: 58%
- Animals responding to 5-hydroxytryptophan stimulus - no. [6, 10]: 8
- Animals not responding to 5-hydroxytryptophan stimulus - % [6, 11]: 60%
- Animals not responding to 5-hydroxytryptophan stimulus - no. [6, 11]: 12
- Animals responding to 5-hydroxytryptophan stimulus - % [6, 11]: 40%
- Animals responding to 5-hydroxytryptophan stimulus - no. [6, 11]: 8
- Animals not responding to 5-hydroxytryptophan stimulus - % [6, 12]: 65%
- Animals not responding to 5-hydroxytryptophan stimulus - no. [6, 12]: 21
- Animals responding to 5-hydroxytryptophan stimulus - % [6, 12]: 35%
- Animals responding to 5-hydroxytryptophan stimulus - no. [6, 12]: 11
- number with prominent genital canals ([7]; dose 1 group, 37.5 ng/g): 11
- number without prominent genital canals ([7]; dose 1 group, 37.5 ng/g): 38
- percent with prominent genital canals ([7]; dose 1 group, 37.5 ng/g): 22%
- percent without prominent genital canals ([7]; dose 1 group, 37.5 ng/g): 78%
- number with prominent genital canals ([7]; dose 2 group, 74 ng/g): 18
- number without prominent genital canals ([7]; dose 2 group, 74 ng/g): 35
- percent with prominent genital canals ([7]; dose 2 group, 74 ng/g): 34%
- percent without prominent genital canals ([7]; dose 2 group, 74 ng/g): 66%

Compound: CNCCC(Oc1ccc(C(F)(F)F)cc1)c1ccccc1 (stereo not drawn) [fluoxetine]
- induction of spawning [8]: can induce spawning in both sexes

Compound: COCCCC/C(=N\OCCN)c1ccc(C(F)(F)F)cc1 [fluvoxamine]
- induction of spawning [8]: can induce spawning in both sexes

Compound: COc1ccc2c(c1)c(CC(=O)O)c(C)n2C(=O)c1ccc(Cl)cc1 [indomethacin]
- effect on serotonin-induced egg release ([1]; PGE2 also present): did not inhibit serotonin-induced egg release

Compound: Fc1ccc([C@@H]2CCNC[C@H]2COc2ccc3c(c2)OCO3)cc1 [paroxetine]
- induction of spawning [8]: can induce spawning in both sexes

Compound: NCCc1c[nH]c2ccc(O)cc12 [serotonin, 5-hydroxytryptamine]
- spawning [9]: stimulated spawning in both sexes
- induction of spawning [8]: induce both oocyte meiotic maturation and spawning
- release of eggs ([1]; pieces of ovary in vitro): the number of released eggs increased significantly

Compound: prostaglandin F2α [PGF2α]
- effect on serotonin-induced egg release ([1]; pieces of ovary in vitro): significantly inhibited the effect of serotonin
